Entries after “also recorded” stand apart in the source; their conditions may differ.
Key:
Type in all cases: cell-based
[1] = target: T1, human M4 (hM4) (Homo sapiens, UniProt P08173); assay: M4 multiparametric FLIPR calcium assay, PAM mode; conditions: compound tested at 3 µM, versus EC20 acetylcholine
T1 sequence (P08173 1-479): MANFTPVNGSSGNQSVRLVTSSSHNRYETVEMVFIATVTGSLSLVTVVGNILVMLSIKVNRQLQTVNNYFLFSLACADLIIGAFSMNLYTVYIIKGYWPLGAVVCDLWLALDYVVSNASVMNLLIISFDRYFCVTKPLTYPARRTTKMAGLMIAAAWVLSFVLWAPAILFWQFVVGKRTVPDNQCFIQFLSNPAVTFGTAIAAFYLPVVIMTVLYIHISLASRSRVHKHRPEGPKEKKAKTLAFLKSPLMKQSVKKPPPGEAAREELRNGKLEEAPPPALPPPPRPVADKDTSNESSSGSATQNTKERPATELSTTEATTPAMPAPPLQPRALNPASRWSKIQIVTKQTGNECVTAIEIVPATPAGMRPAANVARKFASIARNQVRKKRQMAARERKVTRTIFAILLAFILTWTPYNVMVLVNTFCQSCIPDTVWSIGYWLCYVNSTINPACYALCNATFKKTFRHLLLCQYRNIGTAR

[2] = target: T1, human M4 (hM4); assay: M4 multiparametric FLIPR calcium assay, antagonist mode; conditions: compound tested at 3 µM, versus EC80 acetylcholine
[3] = target: T1, human M4 (hM4); assay: M4 multiparametric FLIPR calcium assay, agonist mode; conditions: compound tested at 3 µM, versus DMSO

Row | Compound | response in PAM mode (kinetic trace) [1] | response in antagonist mode (kinetic trace) [2] | response in agonist mode (kinetic trace) [3]
1 | C/C=C(/C)C(=O)O[C@H]1C(C)=C2[C@H]([C@@H]1OC(=O)CCCCCCC)[C@@](C)(OC(C)=O)C[C@H](OC(=O)CCC)[C@@]1(O)[C@H]2OC(=O)[C@@]1(C)O [thapsigargin] | hit in all modes | hit in all modes | hit in all modes
2 | COc1ccc(CNC(=O)c2sc3nc(C)cc(C)c3c2N)cc1 [ML108] | classified as PAMs |  | active; also recorded: yielded responses in the agonist mode

Reference: article PMC4659430 (Journal of biomolecular screening, 2015)
